Assay results published in patent US20230293458A1, “MULTIBIOTIC AGENTS AND METHODS OF USING THE SAME” (Flagship Pioneering Innovations V, Inc., priority 2017, published 2023).

Columns and labels:
[1] = Stability of multibiotic agents in Simulated Intestinal Fluid (SIF); format: in vitro ADME; conditions: simulated intestinal fluid pH 6.7 with pancreatin, 37° C., 1 μM
Procedure: Assay 2. Stability of multibiotic agents in Simulated Intestinal Fluid (SIF). This assay can be used to assess the stability of a multibiotic agent in a small intestine. Phosphate buffer was prepared by dissolving 0.42 g of sodium hydroxide pellets and 3.95 g of monobasic sodium phosphate monohydrate and 6.19 g of sodium chloride in ultrapure water (MilliQ®, Millipore Sigma, Darmstadt, Germany). The pH was adjusted to 6.7 using aq. HCl and aq. NaOH, as necessary, and the solution was diluted with ultrapure water to produce 1 L of the pH 6.7 buffer. 112 mg FaSSIF powder (Biorelevant™, London, UK) was dissolved in 50 mL of the pH 6.7 buffer. 2 to 3 mL of the resulting solution were then added to 500 mg pancreatin (Millipore Sigma, Darmstadt, Germany). The resulting mixture was agitated by finger tapping the vessel containing the mixture until milky suspension formed. At this time, the remainder of the 50 mL FaSSiF/pH 6.7 buffer solution was added. The resulting suspension was flipped upside down 10 times to produce SIF, which was used fresh. Test compounds are dissolved in DMSO stock to 1 mM. An aliquot of the DMSO stock solution is removed and diluted in the SIF media in 15 mL falcon tubes to produce a mixture with a tested compound concentration of 1 μM. A 1 mL aliquot is immediately removed and diluted once with 1 volume of acetonitrile for T0 timepoint. The mixture is sealed and agitated at 37° C. in an incubator. Aliquots (1 mL) are removed at regular intervals and immediately quenched by the addition of 1 volume of acetonitrile. The resulting samples are analyzed by LC/MS to determine degradation rates.

[2] = Stability of multibiotic agents in Simulated Gastric Fluid (SGF); format: in vitro ADME; conditions: simulated gastric fluid pH 1.6 with pepsin, 37° C., 1 μM
Procedure: Assay 3. Stability of multibiotic agents in Simulated Gastric Fluid (SGF). This assay can be used to assess the stability of a multibiotic agent in a stomach.
Medium was prepared by dissolving 2 g of sodium chloride in 0.6 L in ultrapure water (MilliQ®, Millipore Sigma, Darmstadt, Germany). The pH was adjusted to 1.6 with 1 N hydrochloric acid, and the volume was then adjusted to 1 L with purified water.
60 mg FaSSIF powder (Biorelevant™, London, UK) were dissolved in 500 mL buffer (above). Pepsin was added (0.1 mg/mL) (Millipore Sigma, Darmstadt, Germany), and the solution was stirred. The resulting SGF media were used fresh for each experiment.
Test compounds were dissolved in DMSO stock to 1 mM. An aliquot of the DMSO stock solution was removed and diluted in the SGF Media in 15 mL falcon tubes to generate a total compound concentration of 1 μM. A 1 mL aliquot was immediately removed and diluted once with 1 volume of acetonitrile for T0 timepoint. The mixture was sealed and mixed at 37° C. in an incubator. Aliquots (1 mL) were removed at regular intervals and immediately quenched by the addition of 1 volume of acetonitrile. The resulting samples were analyzed by LC/MS to determine degradation rates in SGF.

Row | Compound | Assay 3 (SIF) (% @ Remaining 4 hours) [1] | Assay 2 (SGF) (% Remaining @ 4 hours) [2]
1 | CC(O)CCOC(=O)c1cc(N)ccc1O (stereo in doubt) [Example 112, [(3R)-3-hydroxybutyl] 5-amino-2-hydroxy-benzoate] | C (>75% of the tested compound remaining) | C (>75% of the tested compound remaining)
2 | CCCC(=O)OCC(OC(=O)CCC)[C@@H](OC(=O)CCC)[C@H](OC(=O)CCC)C(OC(=O)CCC)C(=O)O (stereo in doubt) [Example 113, (2S,3S,4R,5S)-2,3,4,5,6-penta(butanoyloxy)hexanoic acid] | B (25-75% of the tested compound remaining) | C (>75% of the tested compound remaining)
3 | COc1cc(/C=C/C(=O)CC(=O)/C=C/c2ccc(OC(=O)Cc3c[nH]c4ccccc34)c(OC)c2)ccc1OC(=O)Cc1c[nH]c2ccccc12 [Example 1, [4-[(1E,6E)-7-[4-[2-(1H-indol-3-yl)acetyl]oxy-3-methoxy-phenyl]-3,5-dioxo-hepta-1,6-dienyl]-2-methoxy-phenyl] 2-(1H-indol-3-yl)acetate] | C (>75% of the tested compound remaining) | C (>75% of the tested compound remaining)
4 | CCCC(=O)Oc1ccc(N)cc1C(=O)O [Example 2, 5-amino-2-butanoyloxy-benzoic acid] | C (>75% of the tested compound remaining) | C (>75% of the tested compound remaining)
5 | CCCC(=O)Oc1ccc(/N=N/c2ccc(OC(=O)CCC)c(C(=O)O)c2)cc1C(=O)O [Example 3, 2-butanoyloxy-5-[(E)-(4-butanoyloxy-3-carboxy-phenyl)azo]benzoic acid] | A (<25% of the tested compound remaining) | A (<25% of the tested compound remaining)
6 | CCCC(=O)Oc1ccc(/C=C/c2cc(OC(=O)CCC)cc(OC(=O)CCC)c2)cc1 [Example 7, [4-[(E)-2-[3,5-di(butanoyloxy)phenyl]vinyl]phenyl] butanoate] | B (25-75% of the tested compound remaining) | C (>75% of the tested compound remaining)
7 | O=C(Cc1c[nH]c2ccccc12)Oc1ccc(/C=C/c2cc(OC(=O)Cc3c[nH]c4ccccc34)cc(OC(=O)Cc3c[nH]c4ccccc34)c2)cc1 [Example 8, [4-[(E)-2-[3,5-bis[[2-(1H-indol-3-yl)acetyl]oxy]phenyl]vinyl]phenyl] 2-(1H-indol-3-yl)acetate] | C (>75% of the tested compound remaining) | C (>75% of the tested compound remaining)
8 | O=C(CCCc1ccccc1)Oc1ccc(/C=C/c2cc(OC(=O)CCCc3ccccc3)cc(OC(=O)CCCc3ccccc3)c2)cc1 [Example 9, [4-[(E)-2-[3,5-bis(4-phenylbutanoyloxy)phenyl]vinyl]phenyl] 4-phenylbutanoate] | C (>75% of the tested compound remaining) | 
9 | CCCC(=O)Oc1ccc(/C=C/C(=O)CC(=O)/C=C/c2ccc(OC(=O)CCC)c(OC)c2)cc1OC [Example 14, [4-[(1E,6E)-7-(4-butanoyloxy-3-methoxy-phenyl)-3,5-dioxo-hepta-1,6-dienyl]-2-methoxy-phenyl] butanoate] | C (>75% of the tested compound remaining) | C (>75% of the tested compound remaining)
10 | CC(=O)Oc1ccc2c(c1)oc(=O)c1cc(OC(C)=O)c(OC(C)=O)cc12 [Example 51, (8,9-diacetoxy-6-oxo-benzo[c]chromen-3-yl) acetate] | C (>75% of the tested compound remaining) | C (>75% of the tested compound remaining)
11 | O=C(Cc1c[nH]c2ccccc12)Oc1ccc2c(c1)oc(=O)c1cc(OC(=O)Cc3c[nH]c4ccccc34)c(OC(=O)Cc3c[nH]c4ccccc34)cc12 [Example 55, [8,9-bis[[2-(1H-indol-3-yl)acetyl]oxy]-6-oxo-benzo[c]chromen-3-yl] 2-(1H-indol-3-yl)acetate] | B (25-75% of the tested compound remaining) | C (>75% of the tested compound remaining)
12 | O=C(CCc1c[nH]c2ccccc12)Oc1ccc2c(c1)oc(=O)c1cc(OC(=O)CCc3c[nH]c4ccccc34)c(OC(=O)CCc3c[nH]c4ccccc34)cc12 [Example 56, [8,9-bis[3-(1H-indol-3-yl)propanoyloxy]-6-oxo-benzo[c]chromen-3-yl] 3-(1H-indol-3-yl)propanoate] | C (>75% of the tested compound remaining) | C (>75% of the tested compound remaining)
13 | CCCCCCCC(=O)Oc1ccc2c(c1)oc(=O)c1cc(OC(=O)CCCCCCC)c(OC(=O)CCCCCCC)cc12 [Example 57, [8,9-di(octanoyloxy)-6-oxo-benzo[c]chromen-3-yl] octanoate] |  | C (>75% of the tested compound remaining)
14 | CCCCCCCC(=O)Oc1ccc(/C=C/c2cc(OC(=O)CCCCCCC)cc(OC(=O)CCCCCCC)c2)cc1 [Example 69, [4-[(E)-2-[3,5-di(octanoyloxy)phenyl]vinyl]phenyl] octanoate] |  | C (>75% of the tested compound remaining)
15 | CCCCCCCCCC(=O)Oc1ccc(/C=C/c2cc(OC(=O)CCCCCCCCC)cc(OC(=O)CCCCCCCCC)c2)cc1 [Example 70, [4-[(E)-2-[3,5-di(decanoyloxy)phenyl]vinyl]phenyl] decanoate] |  | C (>75% of the tested compound remaining)
16 | CCCC(=O)O[C@H](C)CC(=O)Oc1ccc(/C=C/c2cc(OC(=O)C[C@@H](C)OC(=O)CCC)cc(OC(=O)C[C@@H](C)OC(=O)CCC)c2)cc1 [Example 72, [4-[(E)-2-[3,5-bis[[(3R)-3-butanoyloxybutanoyl]oxy]phenyl]vinyl]phenyl] (3R)-3-butanoyloxy-butanoate] | B (25-75% of the tested compound remaining) | C (>75% of the tested compound remaining)
17 | CC(C)(COC(=O)CCc1c[nH]c2ccccc12)[C@@H](OC(=O)CCc1c[nH]c2ccccc12)C(=O)NCCCOC(=O)CCc1c[nH]c2ccccc12 [Example 93, 3-[[(2R)-2,4-bis[3-(1H-indol-3-yl)propanoyloxy]-3,3-dimethyl-butanoyl]amino]propyl 3-(1H-indol-3-yl)propanoate] | A (<25% of the tested compound remaining) | 
18 | O=C(Cc1c[nH]c2ccccc12)O[C@H]1CO[C@H]2[C@@H]1OC[C@H]2OC(=O)Cc1c[nH]c2ccccc12 [Example 109, [(3S,3aR,6R,6aR)-6-[2-(1H-indol-3-yl)acetyl]oxy-2,3,3a,5,6,6a-hexahydrofuro[3,2-b]furan-3-yl] 2-(1H-indol-3-yl) acetate] | A (<25% of the tested compound remaining) | 
19 | CCCC(=O)O[C@@H]1[C@@H](OC(=O)CCC)[C@H](Oc2ccccc2C(=O)O)OC[C@H]1OC(=O)CCC [Example 120, 2-[(2S,3R,4S,5R)-3,4,5-tri(butanoyloxy)tetrahydropyran-2-yl]oxybenzoic acid] | A (<25% of the tested compound remaining) | 
20 | CCCC(=O)O[C@@H]1[C@@H](OC(=O)CCC)[C@@H](Oc2ccc(N)cc2C(=O)O)OC[C@@H]1OC(=O)CCC [Example 121, 5-amino-2-[(2R,3R,4S,5S)-3,4,5-tri(butanoyloxy)tetrahydropyran-2-yl]oxy-benzoic acid] | C (>75% of the tested compound remaining) | 
21 | CCC(=O)O[C@H]1[C@H](OC(=O)CC)COC(OC(=O)CCc2c[nH]c3ccccc23)[C@@H]1OC(=O)CC (stereo partly drawn) [Example 168, [(3R,4S,5R)-3,4,5-tri(propanoyloxy)tetrahydropyran-2-yl] 3-(1H-indol-3-yl)propanoate] |  | C (>75% of the tested compound remaining)
